Test system: β-amyloid neuritic plaque
Experiment: Radiometer cap detection of head radiation signals after IV amyloid tracer, concurrent PET
Assay type: in vivo, human
Protocol: Tests were conducted using a series of radiometers positioned around subjects heads and a standard PET camera using the amyloid tracer ^18F-fluorbetapir in subjects with probable Alzheimer's disease (AD subjects) and healthy control volunteers (HC). ^18F-fluorbetapir is a radioactive diagnostic agent for positron emission tomography (PET) imaging of the brain to estimate β-amyloid neuritic plaque density in adult patients with cognitive impairment who are being evaluated for AD. PET imaging targeting β-amyloid neuritic plaque deposition has already begun playing a role in identifying individuals very early in the course of AD and monitoring progression of the disease over the course of the treatment with investigational therapeutics.
During testing, ^18F-fluorbetpir was administered intravenously as a bolus injection followed by a saline flush. […] Each subject received a single injection of the radioligand with a dose of no more than 10 mCi in a maximum volume of 10 mL.
The device included a cap fitted with up to 5 detectors at various 10-20 EEG positions which was placed on the subject's head. The subjects were asked to avoid any movements of the head and to remain immobilized as much as possible. Additional detectors were secured to one ankle and the chin to obtain an indirect measure of the activity in the blood, and to monitor activity in the head respectively. […] Detector specific count rates and total counts were measured continuously for up to 3 hours. The count rate and total counts were compared in the AD subjects and HC subjects to extrapolate qualitative and quantitative pattern differences. […]
For processing purposes, detected radiation signals were decay corrected to the time of injection. The counts were recorded in 4 second intervals, which were then median filtered using a 2 minute window. […]
To quantify this, a constrained bi-exponential model was fit to the 10-65 minute period of each of the detectors, as well as the sum of the brain signals (excluding the chin, ankle and tip top detectors). […]

CNc1ccc(/C=C/c2ccc(OCCOCCOCCF)nc2)cc1 [^18F-fluorbetapir]
ankle detector signal after injection (ankle detector, all subjects, IV bolus): steadily climbed | alpha phase of bi-exponential fit, healthy versus AD subjects (bi-exponential fit of 10-65 minute period, alpha phase limited to 5-30 min half-life): faster alpha phase | initial washout of signal in healthy subjects versus AD subjects (head detectors, healthy subjects): faster initial washout

Reference: patent US11660054B2, “Medical diagnostic and treatment systems and their methods of use” (Biogen MA Inc., priority 2016, dated 2023)
